Tests used:
[1] = analysis of data from four clinical studies; suicidal thoughts (MADRS item 10); type: in vivo, patients
[2] = randomised, double-blind, parallel-group clinical trial, 8 weeks; HAM-D and MADRS items of suicidal thoughts; type: in vivo; conditions: escitalopram daily dose of 10-20 mg compared with 40 mg citalopram; persons with major depression
Method: In brief, a clinical trial was designed as a randomised, double-blind, parallel-group trial comprising two different fixed escitalopram doses (10 mg and 20 mg per day) for eight weeks. A placebo-arm was included, as was an active comparator arm in terms of 40 mg citalopram per day. The persons fulfilled the following criteria: (a) DSM-IV (i) major depression with symptoms present for a minimum of 4 weeks; (b) minimum total score of 22 on the 10-item MADRS (Montgomery SA, Åsberg M., A new depression scale designed to be sensitive to change., Br. J. Psychiatry 1979, 134, 382-389) and a score of 2 or more on the HAM-D item (depressed mood) (Hamilton, M., Br. J. Soc. Clin. Psychol 1967, 6, 278-296). Persons who still fulfilled the MADRS and HAM-D criteria after 1-week, single-blind placebo lead-in were randomised to the double-blind treatment. Throughout the 8-week double-blind treatment period, persons assigned to placebo or escitalopram 10 mg daily received no adjustment of dosage. Persons in the escitalopram 20 mg daily group and in the citalopram group were titrated to their final dose of after 1 week of treatment at half of their assigned dose. […] Persons were evaluated at baseline (the end of the 1-week placebo lead-in) and after 1, 2, 4, 6, and 8 weeks. […]

CN(C)CCC[C@@]1(c2ccc(F)cc2)OCc2cc(C#N)ccc21 [escitalopram]
overall effect on suicidal thoughts or suicidal ideation ([1]; after one week of treatment with 10-20 mg escitalopram compared to placebo): significantly pronounced already after one week | percentage of patients experiencing an increase in suicidal thoughts ([1]; after one week of treatment, compared to patients treated with citalopram or placebo): significantly lower | treatment of the group of patients having a score greater than or equal to 2 on item 10 on the MADRS depression scale ([1]; compared to citalopram, results of four clinical studies): more much more effective | alleviation of suicidal ideation ([1]; general statement of the finding): early alleviation of suicidal ideation | reducing suicidal thoughts [2]: more effective
